# Results from ChEMBL document CHEMBL1201862, “PubChem BioAssay data set” (2004).
#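 Protocol summary: plate cells (96-well), add compound at 5 concentrations, incubate 48 h, interpolate endpoints linearly. GI50 is the concentration that inhibits growth by half.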 Calls of active or inactive are those of the source. Rule as the data show it: active = GI50 up to about 1.1 µM and inactive = higher. Peptide text beside a SMILES is read from it.
# Key:
# Assay in all cases: DTP human tumour cell line panel, 48 h
# M14 = system: M14
# HCC 2998 = system: HCC 2998
# RXF 393 = system: RXF 393
# IGROV-1 = system: IGROV-1
# SK-MEL-5 = system: SK-MEL-5
# 786-0 = system: 786-0
# HT-29 = system: HT-29
# EKVX = system: EKVX
# SF-539 = system: SF-539
# MOLT-4 = system: MOLT-4
# NCI-H226 = system: NCI-H226
# SK-MEL-2 = system: SK-MEL-2
# DLD-1 = system: DLD-1
# SF-268 = system: SF-268
# SNB-19 = system: SNB-19
# RPMI-8226 = system: RPMI-8226
# BT-549 = system: BT-549
# NCI/ADR-RES = system: NCI/ADR-RES
# PC-3 = system: PC-3
# T47D = system: T47D
Structure (SMILES),GI50 (M14),GI50 (HCC 2998),GI50 (RXF 393),GI50 (IGROV-1),GI50 (SK-MEL-5),GI50 (786-0),GI50 (HT-29),GI50 (EKVX),GI50 (SF-539),GI50 (MOLT-4),GI50 (NCI-H226),GI50 (SK-MEL-2),GI50 (DLD-1),GI50 (SF-268),GI50 (SNB-19),GI50 (RPMI-8226),GI50 (BT-549),GI50 (NCI/ADR-RES),GI50 (PC-3),GI50 (T47D)
O=Cc1c(O)c(C(=O)Nc2ccc3[nH]c(=O)[nH]c3c2)cc2ccccc12,> 100 µM (inactive),> 100 µM (inactive),> 100 µM (inactive),> 100 µM (inactive),> 100 µM (inactive),> 100 µM (inactive),> 100 µM (inactive),> 100 µM (inactive),> 100 µM (inactive),> 100 µM (inactive),> 100 µM (inactive),> 100 µM (inactive),> 100 µM (inactive),> 100 µM (inactive),> 100 µM (inactive),> 100 µM (inactive),,,,
COc1cccc(/C=N\NC(=O)C(C)SC(C)C(=O)N/N=C/c2cccc(OC)c2)c1 (stereo not given),72.9 µM (inactive),18.5 µM (inactive),11.1 µM (inactive),20.3 µM (inactive),56.1 µM (inactive),17.3 µM (inactive),> 66.8 µM (inactive),27 µM (inactive),> 89.1 µM (inactive),39.4 µM (inactive),21.2 µM (inactive),39.2 µM (inactive),58.2 µM (inactive),33.4 µM (inactive),20.8 µM (inactive),32.7 µM (inactive),,,,
O=C1COc2cc(NC(=S)Nc3ccccc3)ccc2N1,> 100 µM (inactive),> 100 µM (inactive),> 100 µM (inactive),> 100 µM (inactive),> 100 µM (inactive),> 100 µM (inactive),> 100 µM (inactive),> 100 µM (inactive),> 100 µM (inactive),> 100 µM (inactive),> 100 µM (inactive),> 100 µM (inactive),> 100 µM (inactive),> 100 µM (inactive),> 100 µM (inactive),> 100 µM (inactive),,,,
O=C(c1ccc(Cl)cc1)c1ccc(OCCSCCCCCCCCCCSCCOc2ccc(C(=O)c3ccc(Cl)cc3)cc2)cc1,,> 100 µM (inactive),> 100 µM (inactive),> 100 µM (inactive),> 100 µM (inactive),> 100 µM (inactive),> 100 µM (inactive),> 100 µM (inactive),,> 100 µM (inactive),> 100 µM (inactive),> 100 µM (inactive),> 100 µM (inactive),> 100 µM (inactive),> 100 µM (inactive),> 100 µM (inactive),,,,
O=C(O)C1OC(n2cc(F)c(=O)[nH]c2=O)CC1O (stereo not given),29.4 µM (inactive),0.574 µM (active),> 87.9 µM (inactive),> 100 µM (inactive),32.4 µM (inactive),15.6 µM (inactive),63.8 µM (inactive),> 82.8 µM (inactive),1.87 µM (inactive),7.73 µM (inactive),> 83.9 µM (inactive),> 100 µM (inactive),> 100 µM (inactive),3.35 µM (inactive),52.5 µM (inactive),61.7 µM (inactive),99.1 µM (inactive),13.2 µM (inactive),51.8 µM (inactive),> 100 µM (inactive)
COc1cc(C(=O)C/C(CCCC(=O)Nc2ccccc2[N+](=O)[O-])=N/NC(=O)c2cc3ccccc3cc2O)ccc1O,20.8 µM (inactive),28.9 µM (inactive),> 71 µM (inactive),34.4 µM (inactive),34.4 µM (inactive),32.4 µM (inactive),41.9 µM (inactive),16.5 µM (inactive),37.9 µM (inactive),26.1 µM (inactive),> 81.7 µM (inactive),> 42.7 µM (inactive),36.7 µM (inactive),23.8 µM (inactive),> 80.2 µM (inactive),> 46.9 µM (inactive),,,,
CCCCn1c(-c2ccccc2)cs/c1=N\NC(=O)Cn1c(C)nc2ccccc21,53.2 µM (inactive),89.1 µM (inactive),34.3 µM (inactive),> 100 µM (inactive),20.4 µM (inactive),> 100 µM (inactive),> 100 µM (inactive),47.1 µM (inactive),> 100 µM (inactive),16.3 µM (inactive),35.8 µM (inactive),> 100 µM (inactive),> 100 µM (inactive),,> 100 µM (inactive),14.7 µM (inactive),,,,
Cc1ccc(NC(=O)C(=O)C(C(=O)c2ccc3ccccc3c2)C2OC(=O)c3ccccc32)c(C)c1 (stereo not given),14.7 µM (inactive),8.99 µM (inactive),3.24 µM (inactive),10.9 µM (inactive),11.1 µM (inactive),6.93 µM (inactive),25.7 µM (inactive),19.1 µM (inactive),4.84 µM (inactive),3.31 µM (inactive),2.63 µM (inactive),13 µM (inactive),12.6 µM (inactive),3.68 µM (inactive),4.37 µM (inactive),5.87 µM (inactive),,,,
CC(C)CC(NC(=O)C(CC(C)C)NC(=O)C(Cc1c[nH]cn1)NC(=O)C(C)NC(=O)C(NC(=O)C(C)NC(=O)C(Cc1c[nH]c2ccccc12)NC(=O)C(CCC(=O)O)NC(=O)C(N)Cc1ccccc1)C(C)C)C(N)=O (stereo not given) (H-FEWAVAHLL-NH2; configuration not given here),> 12.5 µM (inactive),> 12.5 µM (inactive),> 12.5 µM (inactive),> 12.5 µM (inactive),> 12.5 µM (inactive),> 12.5 µM (inactive),> 12.5 µM (inactive),> 12.5 µM (inactive),> 12.5 µM (inactive),> 12.5 µM (inactive),> 12.5 µM (inactive),> 12.5 µM (inactive),> 100 µM (inactive),> 12.5 µM (inactive),> 100 µM (inactive),> 12.5 µM (inactive),,> 12.5 µM (inactive),> 12.5 µM (inactive),> 12.5 µM (inactive)
Cc1cc(NC(=O)NC(=O)c2ccccc2N)ccc1Oc1ncc(Br)cn1,0.0117 µM (active),0.0154 µM (active),0.0244 µM (active),< 0.011 µM (active),< 0.01 µM (active),< 0.0119 µM (active),< 0.0103 µM (active),0.0826 µM (active),< 0.011 µM (active),< 0.0135 µM (active),0.0702 µM (active),< 0.01 µM (active),< 0.0161 µM (active),0.0163 µM (active),< 0.0137 µM (active),0.025 µM (active),< 0.01 µM (active),< 0.01 µM (active),< 0.01 µM (active),0.359 µM (active)
Cc1cc(N(CCC#N)CCC#N)ccc1/C=C(\N=[N+]=[N-])C(=O)NC(=O)COc1ccccc1,> 100 µM (inactive),> 100 µM (inactive),> 46.3 µM (inactive),> 100 µM (inactive),> 100 µM (inactive),> 100 µM (inactive),> 100 µM (inactive),> 100 µM (inactive),> 67.1 µM (inactive),> 100 µM (inactive),> 100 µM (inactive),> 73.3 µM (inactive),> 100 µM (inactive),> 100 µM (inactive),> 76.6 µM (inactive),> 100 µM (inactive),,,,
COC(=O)/C=C(/C(=O)OC)C1(C)c2cc(C(=O)OC)c(C(=O)OC)c(N)c2C(=N)N1c1ccccc1 (stereo not given),17.5 µM (inactive),16.7 µM (inactive),17.1 µM (inactive),27.5 µM (inactive),> 10 µM (inactive),28.6 µM (inactive),16.7 µM (inactive),27.1 µM (inactive),22.2 µM (inactive),17.8 µM (inactive),36.2 µM (inactive),36.7 µM (inactive),13.8 µM (inactive),19.3 µM (inactive),49 µM (inactive),21.5 µM (inactive),,,,
C=C(C)C12CC3CC(/C(=N/O)C(C1)/C3=N\O)[C@@]2(C)O (stereo not given in full),> 100 µM (inactive),> 100 µM (inactive),> 100 µM (inactive),> 100 µM (inactive),> 100 µM (inactive),> 100 µM (inactive),> 100 µM (inactive),> 100 µM (inactive),> 100 µM (inactive),> 100 µM (inactive),> 100 µM (inactive),> 100 µM (inactive),> 100 µM (inactive),> 100 µM (inactive),> 100 µM (inactive),> 100 µM (inactive),,,,
CCOC(=O)c1cccc(=O)c(C(=O)OCC)c1,81.3 µM (inactive),> 100 µM (inactive),36.2 µM (inactive),74 µM (inactive),47.8 µM (inactive),63.2 µM (inactive),58.2 µM (inactive),> 100 µM (inactive),26.1 µM (inactive),35.7 µM (inactive),19.1 µM (inactive),47 µM (inactive),40 µM (inactive),,,29.3 µM (inactive),,,,
